The values below come from patent US12024506B2, “Compounds” (Oxford University Innovation Limited, priority 2018, dated 2024).

For this assay, the target named is T1, GST-human KRas166 (G12V) GPPNHP (Homo sapiens, UniProt P01116, G12V).
T1 construct: made in house; host or cells: E. coli C41(DE3)
As to the kind of experiment: KRas small-molecule screening by SPR (Biacore T200). Format: binding. As to conditions: compound 100 uM, 5% DMSO buffer; immobilised GST-KRas166 (G12V) GPPNHP. As for the experimental part:
For SPR assays pGEX-KRAS(G12V) plasmid was transformed into E. coli C41(DE3). Bacterial cells were cultured at 37° C. to an OD600 of 0.6 and induced with IPTG (final 0.1 mM) at 18° C. over night. The GST fusion proteins were extracted from bacteria pellets after cell disruption in 140 mM NaCl, 2.7 mM KCl, 10 mM NaH2PO4, 1.8 mM KH2PO4, 1 mM EDTA, 2 mM MgCl2 pH 7.4 and purified by glutathione-sepharose column chromatography (GE Healthcare), eluting with 50 mM Tris-HCl pH8.0, 10 mM reduced glutathione, 1 mM DTT, 2 mM MgCl2. The eluted proteins were dialysed against 50 mM Tris-HCl pH8.0, 1 mM DTT, 2 mM MgCl2 and concentrated to 10 mg/ml using a Biomax-30 ULTRAFREE-15 centrifugal filter device (Millipore). Purified KRAS protein was loaded with GPPNHP as described elsewhere (Pacold et al., 2000). Loaded protein was then purified by gel filtration on a HiLoad Superdex-75 HR column (GE Healthcare) in 1×PBS pH7.4, 5 mM MgCl2 and concentrated for storage.
Protocol for KRas Small-Molecule Screening and Affinity Measurements by SPR
To a previously immobilized CM5 chip (GE Healthcare BR-1005-30) with anti GST antibody via amine coupling method, GST in channel 1 and GST-human KRas166 (G12V) GPPNHP in channel 2 were immobilised. GST was immobilised between 2,000 and 5,000 Response units. KRAS166 (G12V) was immobilized between 10,000 to 15,000 Response Units.
In a 96 well plate, compounds were diluted in […], 5 mM MgCl2 and 5% DMSO Buffer to a final concentration of 100 uM. DCAl was used as positive control. Experiment also included a solvent correction curve for 5% DMSO. Screening and evaluation of the protein immobilization and the compounds screening was done accordingly to the BIACORE T200 control and evaluation software.
Calculations for how many response units are required for a 1:1 ratio of compound/protein interaction are shown below. • Protein immobilisation: 10,000 RU; average fragment 300 Da in size. • Rmax=(MWA/MWL)×RL×SM • MWA is the molecular weight of the analyte in Da • MWL is the molecular weight of the ligand in Da • RL is the immobilization level in RU • SM is the molar stoichiometry (assume 1:1) • Rmax=300/47,500×10,000×1 • Rmax=63 RU. Cell Viability Assay protocols Assay 1
Turning to `COc1cccc(-c2cccc3c2OC(CNC(=O)C2CCN(C)CC2)CO3)n1` (stereo not shown) [Example 50, 1-Methyl-piperidine-4-carboxylic acid [8-(6-methoxy-pyridin-2-yl)-2,3-dihydro-benzo[1,4]dioxin-2-ylmethyl]-amide], the “SPR Response Units” value is 14 Response Units.
On to `COc1cccc(-c2cccc3c2O[C@H](CNC(=O)c2ccc(CN4CCN(C)CC4)o2)CO3)n1` [Example 51, 5-(4-Methyl-piperazin-1-ylmethyl)-furan-2-carboxylic acid [(R)-8-(6-methoxy-pyridin-2-yl)-2,3-dihydro-benzo[1,4]dioxin-2-ylmethyl]-amide], for which the “SPR Response Units” value is recorded as 32 Response Units.
Regarding `CN1CCN(Cc2ccc(C(=O)NCC3COc4cccc(-c5cccc(=O)[nH]5)c4O3)o2)CC1` (stereo not shown) [Example 52, 5-(4-Methyl-piperazin-1-ylmethyl)-furan-2-carboxylic acid [8-(6-oxo-1,6-dihydro-pyridin-2-yl)-2,3-dihydro-benzo[1,4]dioxin-2-ylmethyl]-amide], the “SPR Response Units” value is 18 Response Units.
For `CN(C)CCOc1ccc(C(=O)NCC2COc3cccc(-c4cccc(=O)[nH]4)c3O2)cc1` (stereo not shown) [Example 53, 4-(2-dimethylamino-ethoxy)-N-[8-(6-oxo-1,6-dihydro-pyridin-2-yl)-2,3-dihydro-benzo[1,4]dioxin-2-ylmethyl]-benzamide], the “SPR Response Units” value turned out to be 52 Response Units.
With `CN(C)Cc1cccc(Nc2ccc(-c3cccc4c3OCCO4)nc2)c1` [Example 59, [6-(2,3-Dihydro-benzo[1,4]dioxin-5-yl)-pyridin-3-yl]-(3-dimethylaminomethyl-phenyl)-amine], the “SPR Response Units” value amounted to 79 Response Units.
Consider `CN(C)Cc1cccc(Nc2ccc(-c3cccc4c3OCCO4)nn2)c1` [Example 67a, [6-(2,3-Dihydro-benzo[1,4]dioxin-5-yl)-pyridazin-3-yl]-(3-dimethylaminomethyl-phenyl)-amine], for which the “SPR Response Units” value is reported as 31 Response Units.
With `c1ccc(CN2CCN(c3cccc4c3OCCO4)CC2)cc1` [Example 71, 1-Benzyl-4-(2,3-dihydro-benzo[1,4]dioxin-5-yl)-piperazine], the “SPR Response Units” value was 14 Response Units.
With `COc1nc(-c2cccc3c2OCCO3)ccc1Nc1cccc(CNC(=O)c2cn[nH]c2)c1` [Example 81, 1H-Pyrazole-4-carboxylic acid 3-[6-(2,3-dihydro-benzo[1,4]dioxin-5-yl)-2-methoxy-pyridin-3-ylamino]-benzylamide], the “SPR Response Units” value is recorded as 109 Response Units.
On to `COc1nc(-c2cccc3c2OC(CNC(=O)C2CCOCC2)CO3)ccc1NC(=O)CC1CCN(C)CC1` (stereo not shown) [Example 82, Tetrahydro-pyran-4-carboxylic acid (8-{6-methoxy-5-[2-(1-methyl-piperidin-4-yl)-acetylamino]-pyridin-2-yl}-2,3-dihydro-benzo[1,4]dioxin-2-ylmethyl)-amide], for which the “SPR Response Units” value came out at 12 Response Units.
Consider `CN1CCN(Cc2ccc(C(=O)NCC3COc4cccc(-c5ccc(NCC6CCOCC6)cn5)c4O3)o2)CC1` (stereo not shown) [Example 83, 5-(4-Methyl-piperazin-1-ylmethyl)-furan-2-carboxylic acid (8-{5-[(tetrahydro-pyran-4-ylmethyl)-amino]-pyridin-2-yl}-2,3-dihydro-benzo[1,4]dioxin-2-ylmethyl)-amide], for which the “SPR Response Units” value is on record as 16 Response Units.
Under `CN1CCC(COc2ccc(-c3cccc4c3OCCO4)nn2)CC1` [Example 85, 3-(2,3-Dihydro-benzo[1,4]dioxin-5-yl)-6-(1-methyl-piperidin-4-ylmethoxy)-pyridazine] stands 20 Response Units; under `COc1nc(-c2cccc3c2OCCO3)ccc1NC1CCN(C)C1` (stereo not shown) [Example 86, [6-(2,3-Dihydro-benzo[1,4]dioxin-5-yl)-2-methoxy-pyridin-3-yl]-(1-methyl-pyrrolidin-3-yl)-amine], 17 Response Units; under `COc1nc(-c2cccc3c2O[C@H](CNC(=O)c2ccc(CN4CCN(C)CC4)o2)CO3)ccc1N` [Example 87, 5-(4-Methyl-piperazin-1-ylmethyl)-furan-2-carboxylic acid [(R)-8-(5-amino-6-methoxy-pyridin-2-yl)-2,3-dihydro-benzo[1,4]dioxin-2-ylmethyl]-amide], 56 Response Units.
Turning to `COc1nc(-c2cccc3c2OC(CNC(=O)C2CCOCC2)CO3)ccc1Nc1cccnc1` (stereo not shown) [Example 88, Tetrahydro-pyran-4-carboxylic acid {8-[6-methoxy-5-(pyridin-3-ylamino)-pyridin-2-yl]-2,3-dihydro-benzo[1,4]dioxin-2-ylmethyl]-amide], the “SPR Response Units” value amounted to 161 Response Units.
Consider `COc1nc(-c2cccc3c2OC(CNC(=O)C2CCOCC2)CO3)ccc1Nc1ccc(C(=O)NCCO)cc1` (stereo not shown) [Example 89, Tetrahydro-pyran-4-carboxylic acid (8-{5-[4-(2-hydroxy-ethylcarbamoyl)-phenylamino]-6-methoxy-pyridin-2-yl}-2,3-dihydro-benzo[1,4]dioxin-2-ylmethyl)-amide], for which the “SPR Response Units” value is 132 Response Units.
For the compound `COc1nc(-c2cccc3c2OC(CNC(=O)C2CCOCC2)CO3)ccc1Nc1cccc(CN2CCN(C(C)=O)CC2)c1` (stereo not shown) [Example 90, Tetrahydro-pyran-4-carboxylic acid (8-{5-[3-(4-acetyl-piperazin-1-ylmethyl)-phenylamino]-6-methoxy-pyridin-2-yl}-2,3-dihydro-benzo[1,4]dioxin-2-ylmethyl)-amide], the “SPR Response Units” value was 140 Response Units.
Turning to `CN1CCC(NC(=O)c2ccc(Nc3ccc(-c4cccc5c4OC(CNC(=O)C4CCOCC4)CO5)nc3)cc2)CC1` (stereo not shown) [Example 91], the “SPR Response Units” value is on record as 66 Response Units.
With `CN1CCC(CC(=O)Nc2ccc(-c3cccc4c3O[C@H](CNC(=O)C3CCOCC3)CO4)nc2)CC1` [Example 92, Tetrahydro-pyran-4-carboxylic acid ((R)-8-{5-[2-(1-methyl-piperidin-4-yl)-acetylamino]-pyridin-2-yl}-2,3-dihydro-benzo[1,4]dioxin-2-ylmethyl)-amide], the “SPR Response Units” value is given as 7 Response Units.
As for `CN(C)Cc1cccc(Nc2ccc(-c3cccc4c3OC(CNC(=O)C3CCOCC3)CO4)nc2)c1` (stereo not shown) [Example 93], the “SPR Response Units” value came to 39 Response Units.
For the compound `COc1nc(-c2cccc3c2OC(CNC(=O)C2CCOCC2)CO3)ccc1Nc1ccc(C(=O)N(C)C)cc1` (stereo not shown) [Example 94, Tetrahydro-pyran-4-carboxylic acid {8-[5-(4-dimethyl-carbamoyl-phenylamino)-6-methoxy-pyridin-2-yl]-2,3-dihydro-benzo[1,4]dioxin-2-ylmethyl}-amide], the “SPR Response Units” value was found to be 111 Response Units.
For `COc1nc(-c2cccc3c2OCCO3)ccc1NC1CCN(C)CC1` [Example 98, [6-(2,3-Dihydro-benzo[1,4]dioxin-5-yl)-2-methoxy-pyridin-3-yl]-(1-methyl-piperidin-4-yl)-amine], the “SPR Response Units” value was 21 Response Units.
For `COc1nc(-c2cccc3c2OCCO3)ccc1NC1CCN(C(C)=O)CC1` [Example 99, 1-{4-[6-(2,3-Dihydro-benzo[1,4]dioxin-5-yl)-2-methoxy-pyridin-3-ylamino]-piperidin-1-yl}-ethanone], the “SPR Response Units” value came out at 33 Response Units.
Take `CN(C)CCOc1ccc(C(=O)NCC2COc3cccc(-c4cc(N5CCOCC5)ccn4)c3O2)cc1` (stereo not shown) [Example 102, 4-(2-Dimethylamino-ethoxy)-N-[8-(4-morpholin-4-yl-pyridin-2-yl)-2,3-dihydro-benzo[1,4]dioxin-2-ylmethyl]-benzamide]: the “SPR Response Units” value came to 126 Response Units.
As for `CN(C)CCOc1ccc(C(=O)NCC2COc3cccc(-c4cccc(N(C)C)n4)c3O2)cc1` (stereo not shown) [Example 103, 4-(2-Dimethylamino-ethoxy)-N-[8-(6-dimethylamino-pyridin-2-yl)-2,3-dihydro-benzo[1,4]dioxin-2-ylmethyl]-benzamide], the “SPR Response Units” value is given as 64 Response Units.
With `CN(C)CCOc1ccc(C(=O)NCC2COc3cccc(-c4ccccn4)c3O2)cc1` (stereo not shown) [Example 104, 4-(2-Dimethylamino-ethoxy)-N-(8-pyridin-2-yl-2,3-dihydro-benzo[1,4]dioxin-2-ylmethyl)-benzamide], the “SPR Response Units” value was found to be 35 Response Units.
